Laboratory results from PMC7179901, “The aerobic respiratory chain of Pseudomonas aeruginosa cultured in artificial urine media: Role of NQR and terminal oxidases” (PLoS ONE, 2020).

Tests used:
NQR = target: T1, NQR (Pseudomonas aeruginosa, UniProt Q9HZK7+Q9HZK9); test: HQNO titration of NADH-dependent oxygen consumption in isolated membranes; assay type: biochemical
T1 construct: gene nqrB; native NQR complex in LB and mAUM membranes; with six-subunit complex NqrA-F

[1] = target: T2, purified P. aeruginosa NQR (Pa-NQR) (Pseudomonas aeruginosa, UniProt Q9HZL1); test: ubiquinone reductase activity at […] nm; assay type: biochemical; conditions: 50 μM ubiquinone-1, KHE buffer pH 7.5
T2 construct: gene nqrF; […]; DDM-solubilized, Ni-NTA (tag not described) and DEAE purified; six-subunit complex; with Na(+)-translocating NADH-quinone reductase subunit A; Na(+)-translocating NADH-quinone reductase subunit B; Na(+)-translocating NADH-quinone reductase subunit C; Na(+)-translocating NADH-quinone reductase subunit D; Na(+)-translocating NADH-quinone reductase subunit E
T2 sequence (Q9HZL1 whole entry): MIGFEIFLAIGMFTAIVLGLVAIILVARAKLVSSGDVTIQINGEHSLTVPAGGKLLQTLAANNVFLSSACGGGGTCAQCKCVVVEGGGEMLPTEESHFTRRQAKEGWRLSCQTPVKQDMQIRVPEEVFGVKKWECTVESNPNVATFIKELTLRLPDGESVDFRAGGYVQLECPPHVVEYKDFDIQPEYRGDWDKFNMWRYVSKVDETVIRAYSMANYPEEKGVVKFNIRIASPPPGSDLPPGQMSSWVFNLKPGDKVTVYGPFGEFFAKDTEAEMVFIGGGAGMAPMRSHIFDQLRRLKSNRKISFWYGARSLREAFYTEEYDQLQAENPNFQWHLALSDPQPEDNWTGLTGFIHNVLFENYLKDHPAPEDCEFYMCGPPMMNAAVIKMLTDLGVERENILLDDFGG
T2 sequence (Q9HZK6 whole entry partner): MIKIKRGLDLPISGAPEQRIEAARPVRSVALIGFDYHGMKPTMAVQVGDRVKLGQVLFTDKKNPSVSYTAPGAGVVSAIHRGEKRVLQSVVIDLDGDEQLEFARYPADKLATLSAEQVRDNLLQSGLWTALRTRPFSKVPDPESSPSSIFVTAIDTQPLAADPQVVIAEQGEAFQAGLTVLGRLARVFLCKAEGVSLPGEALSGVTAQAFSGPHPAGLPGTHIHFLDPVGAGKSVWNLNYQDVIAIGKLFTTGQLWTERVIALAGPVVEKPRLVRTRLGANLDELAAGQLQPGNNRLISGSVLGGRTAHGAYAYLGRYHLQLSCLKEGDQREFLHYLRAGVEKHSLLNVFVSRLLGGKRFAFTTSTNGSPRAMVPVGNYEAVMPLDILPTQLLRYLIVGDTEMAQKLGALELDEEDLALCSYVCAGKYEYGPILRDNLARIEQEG
T2 sequence (Q9HZK7 whole entry partner): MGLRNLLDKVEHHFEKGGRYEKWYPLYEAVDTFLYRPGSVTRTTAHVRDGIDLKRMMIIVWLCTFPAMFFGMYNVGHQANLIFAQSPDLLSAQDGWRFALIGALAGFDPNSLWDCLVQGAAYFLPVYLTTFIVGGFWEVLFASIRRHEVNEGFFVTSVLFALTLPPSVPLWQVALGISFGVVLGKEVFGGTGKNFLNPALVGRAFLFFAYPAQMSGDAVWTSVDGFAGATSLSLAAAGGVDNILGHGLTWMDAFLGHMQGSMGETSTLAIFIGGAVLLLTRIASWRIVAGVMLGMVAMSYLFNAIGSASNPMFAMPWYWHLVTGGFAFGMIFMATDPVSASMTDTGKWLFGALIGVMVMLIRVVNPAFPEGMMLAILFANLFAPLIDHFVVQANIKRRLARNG
T2 sequence (Q9HZK8 whole entry partner): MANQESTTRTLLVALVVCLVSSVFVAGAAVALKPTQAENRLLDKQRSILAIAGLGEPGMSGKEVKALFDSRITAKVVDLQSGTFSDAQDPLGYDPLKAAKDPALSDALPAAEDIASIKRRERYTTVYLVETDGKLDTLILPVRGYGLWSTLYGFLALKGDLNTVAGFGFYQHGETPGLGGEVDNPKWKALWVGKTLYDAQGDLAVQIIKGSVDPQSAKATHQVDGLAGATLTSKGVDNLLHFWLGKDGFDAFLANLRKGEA
T2 sequence (Q9HZK9 whole entry partner): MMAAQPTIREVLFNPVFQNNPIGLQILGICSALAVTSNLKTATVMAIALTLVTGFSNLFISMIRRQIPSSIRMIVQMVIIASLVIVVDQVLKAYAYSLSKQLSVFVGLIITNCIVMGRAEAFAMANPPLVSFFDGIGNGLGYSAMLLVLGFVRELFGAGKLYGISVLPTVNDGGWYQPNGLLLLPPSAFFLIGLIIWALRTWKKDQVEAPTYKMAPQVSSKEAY
T2 sequence (Q9HZL0 whole entry partner): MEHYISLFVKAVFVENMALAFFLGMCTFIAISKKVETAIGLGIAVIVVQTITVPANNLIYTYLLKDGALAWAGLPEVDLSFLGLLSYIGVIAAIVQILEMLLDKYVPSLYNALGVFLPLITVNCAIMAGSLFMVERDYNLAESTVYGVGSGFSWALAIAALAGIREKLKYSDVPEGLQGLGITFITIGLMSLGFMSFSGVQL

T1 sequence (Q9HZK9 whole entry): as the sequence (Q9HZK9 whole entry partner) above
T1 sequence (Q9HZL1 whole entry, further chain): as the sequence (Q9HZL1 whole entry) above
T1 sequence (Q9HZK7 whole entry): as the sequence (Q9HZK7 whole entry partner) above
T1 sequence (Q9HZK6 whole entry, further chain): as the sequence (Q9HZK6 whole entry partner) above
T1 sequence (Q9HZL0 whole entry, further chain): as the sequence (Q9HZL0 whole entry partner) above
T1 sequence (Q9HZK8 whole entry, further chain): as the sequence (Q9HZK8 whole entry partner) above

## CCCCCCCc1cc(O)c2ccccc2[n+]1[O-] [HQNO]
NQR
  Ki: 2000 nM

## NC(=O)C1=CN([C@@H]2O[C@H](COP(=O)(O)OP(=O)(O)OC[C@H]3O[C@@H](n4cnc5c(N)ncnc54)[C@H](O)[C@@H]3O)[C@@H](O)[C@H]2O)C=CC1 [NADH]
[1]; 250 μM NADH
  ubiquinone reductase activity at 282 nm: purified P. aeruginosa NQR (F) using as substrates NADH (black) or deamino NADH

## NC(=O)C1=CN([C@@H]2O[C@H](COP(=O)(O)OP(=O)(O)OC[C@H]3O[C@@H](n4cnc5c(=O)[nH]cnc54)[C@H](O)[C@@H]3O)[C@@H](O)[C@H]2O)C=CC1 [deamino NADH]
[1]; 250 μM deamino NADH
  ubiquinone reductase activity at 282 nm: purified P. aeruginosa NQR (F) using as substrates NADH (black) or deamino NADH
